According to patent US12441691B2 (Cytokinetics, Inc., priority 2020, dated 2025):

system: rabbit skeletal myofibrils (fast skeletal myofibrils); assay: Activation of fast skeletal myofibrils (PUMA assay, AC1.4); assay type: biochemical; details: calcium at pCa25, AC1.4 = concentration at which the compound increased the enzymatic activity
How it was run: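 In 12 mM PIPES pH 6.8 with 2 mM MgCl2 and 1 mM DTT, Triton-washed rabbit skeletal myofibrils were run at the pCa25 calcium level. Myosin-made ADP was recycled through a PK/LDH coupled system; NADH loss read at 340 nm.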

First: CC[C@H](C)[C@H]1C(=O)Nc2ccccc2CN1CCOC [Compound 310, (S)-3-((S)-sec-butyl)-4-(2-methoxyethyl)-1,3,4,5-tetrahydro-2H-benzo[e][1,4]diazepin-2-one]
Second: CC[C@H](C)[C@H]1C(=O)Nc2ccccc2CN1CCC(N)=O [Compound 312, 3-((S)-3-((S)-sec-butyl)-2-oxo-1,2,3,5-tetrahydro-4H-benzo[e][1,4]diazepin-4-yl)propanamide]
The AC1.4 of the first is 3.4-fold higher: 4.17 µM for the first, 1.22 µM for the second.

Compared with CC[C@H](C)[C@H]1C(=O)Nc2ccccc2CN1CC(=O)NC [Compound 311, 2-((S)-3-((S)-sec-butyl)-2-oxo-1,2,3,4-tetrahydro-4H-benzo[e][1,4]diazepin-4-yl)-N-methylacetamide], CC[C@H](C)[C@H]1C(=O)Nc2ccccc2CN1CCC(=O)NC [Compound 314, 3-((S)-3-((S)-sec-butyl)-2-oxo-1,2,3,5-tetrahydro-4H-benzo[e][1,4]diazepin-4-yl)-N-methylpropanamide] is 3.6-fold lower in AC1.4: 2.60 µM for the first, 0.72 µM for the second.

CC[C@H](C)[C@H]1C(=O)Nc2ccccc2CN1CCC(=O)N(C)C [Compound 313, 3-((S)-3-((S)-sec-butyl)-2-oxo-1,2,3,5-tetrahydro-4H-benzo[e][1,4]diazepin-4-yl)-N,N-dimethylpropanamide] and CC[C@H](C)[C@H]1C(=O)Nc2ccccc2CN1CC#N [Compound 316, 2-((S)-3-((S)-sec-butyl)-2-oxo-1,2,3,5-tetrahydro-4H-benzo[e][1,4]diazepin-4-yl)acetonitrile] are within 1.5-fold of each other in AC1.4: 1.22 µM for the first, 1.07 µM for the second.

First: CC[C@H](C)[C@H]1C(=O)Nc2ccccc2CN1CC1CCCC1 [Compound 315, (S)-3-((S)-sec-butyl)-4-(cyclopentylmethyl)-1,3,4,5-tetrahydro-2H-benzo[e][1,4]diazepin-2-one]
Second: CC[C@H](C)[C@H]1C(=O)Nc2ccccc2C2COC(=O)N21 (stereo partly drawn) [Compound 318, (5S)-5-((S)-sec-Butyl)-7,11b-dihydro-1H,3H-benzo[f]oxazolo[3,4-d][1,4]diazepine-3,6(5H)-dione]
The AC1.4 of the first is 3.4-fold higher: 0.65 µM for the first, 0.19 µM for the second.

CC[C@H](C)[C@H]1C(=O)Nc2ccccc2C(CO)N1C(N)=O (stereo partly drawn) [Compound 317, (3S)-3-((S)-sec-butyl)-5-(hydroxymethyl)-2-oxo-1,2,3,5-tetrahydro-4H-benzo[e][1,4]diazepine-4-carboxamide] and CC[C@H](C)[C@H]1C(=O)Nc2ccccc2[C@@H](C)N1C(N)=O [Compound 320, (3S,5R)-3-((S)-sec-butyl)-5-methyl-2-oxo-1,2,3,5-tetrahydro-4H-benzo[e][1,4]diazepine-4-carboxamide] are within 1.5-fold of each other in AC1.4: 1.30 µM for the first, 1.25 µM for the second.

Compared with CC[C@H](C)[C@H]1C(=O)Nc2ccccc2[C@@H](C)N1C(=O)c1cnn(C)c1 [Compound 319, (3S,5R)-3-((S)-sec-butyl)-5-methyl-4-(1-methyl-1H-pyrazole-4-carbonyl)-1,3,4,5-tetrahydro-2H-benzo[e][1,4]diazepin-2-one], CC(C)[C@H]1C(=O)Nc2ccccc2CN1C(=O)c1cnn(CCO)c1 [Compound 328, (S)-4-(1-(2-hydroxyethyl)-1H-pyrazole-4-carbonyl)-3-isopropyl-1,3,4,5-tetrahydro-2H-benzo[e][1,4]diazepin-2-one] is 3.2-fold higher in AC1.4: 0.80 µM for the first, 2.56 µM for the second.

CC(C)[C@H]1C(=O)Nc2ccccc2CN1C(=O)c1ccn(C)n1 [Compound 322, (S)-3-isopropyl-4-(1-methyl-1H-pyrazole-3-carbonyl)-1,3,4,5-tetrahydro-2H-benzo[e][1,4]diazepin-2-one] and CC(C)[C@H]1C(=O)Nc2ccccc2CN1C(=O)c1cn[nH]c1 [Compound 331, (S)-3-isopropyl-4-(1H-pyrazole-4-carbonyl)-1,3,4,5-tetrahydro-2H-benzo[e][1,4]diazepin-2-one] are within 1.5-fold of each other in AC1.4: 1.15 µM for the first, 1.03 µM for the second.

First: CC(C)[C@H]1C(=O)Nc2ccccc2CN1c1nccs1 [Compound 323, (S)-3-isopropyl-4-(thiazol-2-yl)-1,3,4,5-tetrahydro-2H-benzo[e][1,4]diazepin-2-one]
Second: Cc1nsc(N2Cc3ccccc3NC(=O)[C@@H]2C(C)C)n1 [Compound 324, (S)-3-isopropyl-4-(3-methyl-1,2,4-thiadiazol-5-yl)-1,3,4,5-tetrahydro-2H-benzo[e][1,4]diazepin-2-one]
The AC1.4 of the first is 1.8-fold lower: 0.66 µM for the first, 1.16 µM for the second.

Compared with CC(C)[C@H]1C(=O)Nc2ccccc2CN1C(=O)N(C)C [Compound 325, (S)-3-isopropyl-N,N-dimethyl-2-oxo-1,2,3,5-tetrahydro-4H-benzo[e][1,4]diazepine-4-carboxamide], CC(=O)N1Cc2ccccc2NC(=O)[C@@H]1C(C)C [Compound 326, (S)-4-acetyl-3-isopropyl-1,3,4,5-tetrahydro-2H-benzo[e][1,4]diazepin-2-one] is 2.4-fold higher in AC1.4: 1.81 µM for the first, 4.38 µM for the second.

Compared with CC(C)[C@H]1C(=O)Nc2ccccc2CN1C(=O)c1cc[nH]c(=O)c1 [Compound 327, (S)-3-isopropyl-4-(2-oxo-1,2-dihydropyridine-4-carbonyl)-1,3,4,5-tetrahydro-2H-benzo[e][1,4]diazepin-2-one], CC(C)[C@H]1C(=O)Nc2ccccc2CN1C(=O)c1ccc(C(N)=O)[nH]1 [Compound 329, (S)-5-(3-isopropyl-2-oxo-2,3,4,5-tetrahydro-1H-benzo[e][1,4]diazepine-4-carbonyl)-1H-pyrrole-2-carboxamide] is 7.5-fold lower in AC1.4: 1.50 µM for the first, 0.20 µM for the second.

Going from COCCn1cc(C(=O)N2Cc3ccccc3NC(=O)[C@@H]2C(C)C)cn1 [Compound 330, (S)-3-isopropyl-4-(1-(2-methoxyethyl)-1H-pyrazole-4-carbonyl)-1,3,4,5-tetrahydro-2H-benzo[e][1,4]diazepin-2-one] to CNC(=O)N1Cc2ccccc2NC(=O)[C@@H]1C(C)C [Compound 335, (S)-3-isopropyl-N-methyl-2-oxo-1,2,3,5-tetrahydro-4H-benzo[e][1,4]diazepine-4-carboxamide], the AC1.4 rises from 1.71 µM to 3.75 µM (2.2-fold).

Going from CC(C)[C@H]1C(=O)Nc2ccccc2CN1C(=O)N1CC(O)C1 [Compound 332, (S)-4-(3-hydroxyazetidine-1-carbonyl)-3-isopropyl-1,3,4,5-tetrahydro-2H-benzo[e][1,4]diazepin-2-one] to CC[C@H](C)[C@H]1C(=O)Nc2cccc(F)c2CN1C(=O)N1CC(O)C1 [Compound 337, (S)-3-((S)-sec-butyl)-6-fluoro-4-(3-hydroxyazetidine-1-carbonyl)-1,3,4,5-tetrahydro-2H-benzo[e][1,4]diazepin-2-one], the AC1.4 falls from 2.37 µM to 0.72 µM (3.3-fold).

Compared with CC(C)[C@H]1C(=O)Nc2ccccc2CN1S(=O)(=O)N(C)C [Compound 333, (S)-3-isopropyl-N,N-dimethyl-2-oxo-1,2,3,5-tetrahydro-4H-benzo[e][1,4]diazepine-4-sulfonamide], CC(C)[C@H]1C(=O)Nc2ccccc2CN1c1c(N)c(=O)c1=O [Compound 334, (S)-3-amino-4-(3-isopropyl-2-oxo-1,2,3,5-tetrahydro-4H-benzo[e][1,4]diazepin-4-yl)cyclobut-3-ene-1,2-dione] is 3.8-fold lower in AC1.4: 2.44 µM for the first, 0.65 µM for the second.

Compared with CC[C@H](C)[C@H]1C(=O)Nc2cccc(F)c2CN1/C(N)=N\C#N [Compound 336, (S,Z)-3-((S)-sec-butyl)-N′-cyano-6-fluoro-2-oxo-1,2,3,5-tetrahydro-4H-benzo[e][1,4]diazepine-4-carboximidamide], CC[C@H](C)[C@H]1C(=O)Nc2cccc(F)c2CN1C(=O)NC [Compound 338, (S)-3-((S)-sec-butyl)-6-fluoro-N-methyl-2-oxo-1,2,3,5-tetrahydro-4H-benzo[e][1,4]diazepine-4-carboxamide] is 5.8-fold higher in AC1.4: 0.12 µM for the first, 0.69 µM for the second.

CC[C@H](C)[C@H]1C(=O)Nc2cccc(F)c2CN1C(=O)CCO [Compound 339, (S)-3-((S)-sec-butyl)-6-fluoro-4-(3-hydroxypropanoyl)-1,3,4,5-tetrahydro-2H-benzo[e][1,4]diazepin-2-one] and CC[C@H](C)[C@H]1C(=O)Nc2cccc(F)c2CN1C(=O)N1CC[C@H](O)C1 [Compound 340, (S)-3-((S)-sec-butyl)-6-fluoro-4-((S)-3-hydroxypyrrolidine-1-carbonyl)-1,3,4,5-tetrahydro-2H-benzo[e][1,4]diazepin-2-one] are within 1.5-fold of each other in AC1.4: 2.79 µM for the first, 3.00 µM for the second.

First: CC[C@H](C)[C@H]1C(=O)Nc2ccc(F)cc2CN1C(=O)CO [Compound 341, (S)-3-((S)-sec-butyl)-7-fluoro-4-(2-hydroxyacetyl)-1,3,4,5-tetrahydro-2H-benzo[e][1,4]diazepin-2-one]
Second: CC[C@H](C)[C@H]1C(=O)Nc2ccc(F)cc2CN1C(=O)N1CC(C)(O)C1 [Compound 346, (S)-3-((S)-sec-butyl)-7-fluoro-4-(3-hydroxy-3-methylazetidine-1-carbonyl)-1,3,4,5-tetrahydro-2H-benzo[e][1,4]diazepin-2-one]
The AC1.4 of the first is 1.5-fold higher: 2.37 µM for the first, 1.57 µM for the second.

CC[C@H](C)[C@H]1C(=O)Nc2ccc(F)cc2CN1C(=O)c1cn[nH]c1 [Compound 342, (S)-3-((S)-sec-butyl)-7-fluoro-4-(1H-pyrazole-4-carbonyl)-1,3,4,5-tetrahydro-2H-benzo[e][1,4]diazepin-2-one] and CC[C@H](C)[C@H]1C(=O)Nc2ccc(F)cc2CN1C(=O)c1ncn[nH]1 [Compound 343, (S)-3-((S)-sec-butyl)-7-fluoro-4-(1H-1,2,4-triazole-5-carbonyl)-1,3,4,5-tetrahydro-2H-benzo[e][1,4]diazepin-2-one] are within 1.5-fold of each other in AC1.4: 0.27 µM for the first, 0.25 µM for the second.

CC[C@H](C)[C@H]1C(=O)Nc2ccc(F)cc2CN1C(=O)c1cccc(=O)[nH]1 [Compound 344, (S)-3-((S)-sec-butyl)-7-fluoro-4-(6-oxo-1,6-dihydropyridine-2-carbonyl)-1,3,4,5-tetrahydro-2H-benzo[e][1,4]diazepin-2-one] and CC[C@H](C)[C@H]1C(=O)Nc2ccc(F)cc2CN1S(N)(=O)=O [Compound 345, (S)-3-((S)-sec-butyl)-7-fluoro-2-oxo-1,2,3,5-tetrahydro-4H-benzo[e][1,4]diazepine-4-sulfonamide] are within 1.5-fold of each other in AC1.4: 1.91 µM for the first, 2.43 µM for the second.
